Results reported in paper PMC1988858, “Nanosensor Detection of an Immunoregulatory Tryptophan Influx/Kynurenine Efflux Cycle” (PLoS Biology, 2007).

What was measured:
COS-7 cells [1] = test: Perfusion ratio imaging of tryptophan uptake and exchange in COS-7 cells expressing FLIPW-CTYT (LAT1-like exchanger); type: cell-based; conditions: for Tryptophan export from the cytosol promoted by extracellular amino acid: COS-7 loaded with tryptophan, amino acid at 100 μM; for Tryptophan export induced by extracellular tryptophan degradation product: tryptophan-preloaded COS-7 cells, DL-HK 200–1,000 μM; for Effect on uptake rate of 100 μM L-tryptophan: COS-7, inhibitors at 5 mM
Description: (§1) Cells were cultured at 37 °C and 5% CO2.
Ratio imaging was performed on an inverted fluorescence microscope (DM IRE2, Leica; http://www.leica.com) with a Quant EM digital camera (Photometrics; http://www.photomet.com) and 20× oil immersion, 63× water immersion lenses (HC PL APO 20×/0.7 or HCX PL APO, Leica). […] A Lambda DG4 (Sutter Instruments; http://www.sutter.com) provided excitation light. Images were acquired within the linear detection range of the camera and exposure times varied between 50 and 200 ms, depending on the expression level, with software binning between 2 and 3. Fluorescence intensities for eCFP and Venus were typically in the range of 6,000–8,000 and 12,000–16,000, respectively. Typical background values were around 1,000. Cells were perfused with Tyrode's buffer supplemented with ligands at flow rates of 1.0 ml/min in a vacuum chamber (Vacu-Cell VC-MPC-TW, C&L Instruments; http://www.fluorescence.com/) with a total volume of 0.1 ml. Buffers were exchanged using an eight-way automated ValveBank (AutoMate; http://www.autom8.com/). Inhibitors BCH and α-(methylamino)isobutyric acid (MeIAB) were used at 5 mM concentrations. For determination of the substrate specificity of tryptophan exchange, all 20 amino acids were tested at 100 μM concentrations.

FLIPW-CTY = biological target: T1, FLIPW-CTY (Escherichia coli, UniProt P0A881); test: In vitro FRET ligand titration of FLIPW-CTY; type: binding, E. coli; conditions: for Kd: 20 mM MOPS pH 7.0, read-out: Affinity of FLIPW-CTY for tryptophan substrates
T1 construct: made in house; host or cells: E. coli BL21(DE3)gold
Description: (§2) The eCFP emission used for the ratio calculation was determined at 485 nm. Protein was diluted to give Venus readouts of 20,000–30,000 at a manual gain of between 70–75. By using the change in FRET ratio upon binding of ligand, affinity constants (K d) were determined by fitting the titration curves to a single-site binding isotherm: [drawing 1] with [L], ligand concentration; n, number of equal binding sites; R, ratio; R apo, ratio in the absence of ligand; and R sat, ratio at saturation with ligand. Three independent protein preparations were analyzed and each protein preparation was analyzed in triplicate.

human LAT1 = system: human LAT1; set-up: method as in PMID 11557028; conditions: LAT1 expressed in oocytes, static conditions; cited from earlier work
FLIPW-CTYT = biological target: T2, FLIPW-CTYT (Escherichia coli, UniProt P0A881); test: In vitro FRET ligand titration of FLIPW-CTYT; type: binding, E. coli; conditions: for Kd: 20 mM MOPS pH 7.0; for FLIPW-CTYT FRET response or interference with tryptophan binding: in vitro, unpublished data
T2 construct: made in house; host or cells: E. coli BL21(DE3)gold
Description: as §2

KB cells = test: Perfusion ratio imaging of LAT1-mediated tryptophan uptake and exchange in KB cells expressing FLIPW-CTYT; type: cell-based, human; conditions: for Export of intracellular tryptophan upon perfusion (FRET ratio decrease): 100 μM L-His, 200 μM DL-K, 200 μM DL-HK, 1,000 μM HAA
Description: as §1
Ratio imaging was performed on an inverted fluorescence microscope (DM IRE2, Leica; http://www.leica.com) with a Quant EM digital camera (Photometrics; http://www.photomet.com) and 20× oil immersion, 63× water immersion lenses (HC PL APO 20×/0.7 or HCX PL APO, Leica). Dual emission intensity ratios were simultaneously recorded using a DualView with an OI-5-EM filter set (eCFP 480/30; eYFP 535/40; Optical Insights; http://www.optical-insights.com) and Slidebook 4.2 (Intelligent Imaging Innovations; http://www.intelligent-imaging.com/). A Lambda DG4 (Sutter Instruments; http://www.sutter.com) provided excitation light. Images were acquired within the linear detection range of the camera and exposure times varied between 50 and 200 ms, depending on the expression level, with software binning between 2 and 3. Fluorescence intensities for eCFP and Venus were typically in the range of 6,000–8,000 and 12,000–16,000, respectively. Typical background values were around 1,000. Cells were perfused with Tyrode's buffer supplemented with ligands at flow rates of 1.0 ml/min in a vacuum chamber (Vacu-Cell VC-MPC-TW, C&L Instruments; http://www.fluorescence.com/) with a total volume of 0.1 ml. Buffers were exchanged using an eight-way automated ValveBank (AutoMate; http://www.autom8.com/). Inhibitors BCH and α-(methylamino)isobutyric acid (MeIAB) were used at 5 mM concentrations. For determination of the substrate specificity of tryptophan exchange, all 20 amino acids were tested at 100 μM concentrations. Analyses were repeated at least three times with similar results.

COS-7 cells [2] = conditions: read-out: Apparent affinity constant KM for combined transport and metabolism; COS-7, 96-well microplate, Tyrode's buffer
Description: COS-7 cells were grown in Dulbecco's modified Eagle's medium (high glucose; DMEM, Gibco; http://www.invitrogen.com) with 10% fetal calf serum and 50 units (U)/ml penicillin and 50 μg/ml streptomycin (Gibco). […] Cells were cultured at 37 °C and 5% CO2. For imaging, cells were cultured in 8-well LabTekII German tissue culture glass slides (Nalge Nunc International; http://www.nalgenunc.com) and transiently transfected at 50%–70% confluence using Lipofectamine 2000 Reagent (Invitrogen) in Opti-MEM I reduced serum medium (Gibco). After transfection, cells were cultured for 16 h in Opti-MEM I followed by 3 h in growth medium prior to imaging.
Adherent COS-7 cells in 96-well microplates were washed once with 100 μl Tyrode's buffer (119 mM NaCl, 2.5 mM KCl, 2 mM CaCl2, 2 mM MgCl2, 25 mM HEPES, 30 mM glucose, pH 7.3–7.4). The initial FRET ratio was measured by recording the eCFP and Venus emissions at 485 nm and 528 nm, respectively, after excitation of eCFP at 433 nm in a Safire monochromator microplate reader (Tecan). Standard deviation of the initial ratios was less than 10%. After addition of 100 μl tryptophan in Tyrode's buffer the FRET ratio was recorded with 2-min intervals for up to 2 h. Uptake rates were determined from linear parts in the initial FRET change and fitted with the nonlinear regression program Origin 6.1 (OriginLab; http://www.originlab.com).

[3] = system: LAT1-like amino acid exchanger; test: Velocity of intracellular FLIPW-CTYT FRET response by single-cell imaging versus external L-tryptophan in COS-7 cells perfused with Tyrode's buffer, histidine as counterexchange substrate, Michaelis-Menten fit.; type: cell-based; conditions: read-out: affinity of the cells for combined uptake and metabolism of tryptophan
Description: Upon perfusion with 100 μM L-tryptophan, the FRET ratio increased instantaneously, corresponding to rising levels of cytosolic tryptophan. […] This way, cells could be repeatedly loaded with tryptophan and unloaded using histidine (Figure 4A). […] Na^+ independence and BCH sensitivity are characteristic of the transport properties of LAT1- and LAT2-like amino acid counterexchangers. […] LAT2 is expressed in the proximal tubule of the kidney, so it might be expressed in COS-7 cells. In addition, LAT1 is expressed in various human tumor cell lines and, consequently, is likely to be present in COS-7 cells as well.
(§3) According to the FRET theory, an increase in Venus signal is accompanied by a decrease in eCFP signal. Ratio defined as fluorescence intensity quotient obtained with emission filters 535/40 nm over 480/30 nm. […] Error bars indicate standard deviation. […]
Ratio imaging was performed on an inverted fluorescence microscope (DM IRE2, Leica; http://www.leica.com) with a Quant EM digital camera (Photometrics; http://www.photomet.com) and 20× oil immersion, 63× water immersion lenses (HC PL APO 20×/0.7 or HCX PL APO, Leica). Dual emission intensity ratios were simultaneously recorded using a DualView with an OI-5-EM filter set (eCFP 480/30; eYFP 535/40; Optical Insights; http://www.optical-insights.com) and Slidebook 4.2 (Intelligent Imaging Innovations; http://www.intelligent-imaging.com/). […]

FLIPW-TCTY = biological target: T3, FLIPW-TCTY (Escherichia coli, UniProt P0A881); test: FRET ratio (528/485 nm, eCFP excitation 433 nm) titration of purified sensor with L-tryptophan in 20 mM MOPS, pH 7.0, fitted to a single-site binding isotherm.; conditions: n = 3
T3 construct: gene trpR
Description: as §2

LAT1 = biological target: T4, LAT1 (Homo sapiens, UniProt Q01650); test: Velocity of intracellular FLIPW-CTYT FRET response by single-cell imaging versus external L-tryptophan in human KB cells perfused with Tyrode's buffer, histidine as counterexchange substrate, Michaelis-Menten fit.; type: cell-based; conditions: read-out: affinity of KB cells for combined tryptophan uptake and metabolism under perfusion conditions
T4 construct: gene SLC7A5; endogenous transporter of KB cells expressing cytosolic FLIPW-CTYT sensor
T4 sequence (Q01650 whole entry, the tested form may be a part): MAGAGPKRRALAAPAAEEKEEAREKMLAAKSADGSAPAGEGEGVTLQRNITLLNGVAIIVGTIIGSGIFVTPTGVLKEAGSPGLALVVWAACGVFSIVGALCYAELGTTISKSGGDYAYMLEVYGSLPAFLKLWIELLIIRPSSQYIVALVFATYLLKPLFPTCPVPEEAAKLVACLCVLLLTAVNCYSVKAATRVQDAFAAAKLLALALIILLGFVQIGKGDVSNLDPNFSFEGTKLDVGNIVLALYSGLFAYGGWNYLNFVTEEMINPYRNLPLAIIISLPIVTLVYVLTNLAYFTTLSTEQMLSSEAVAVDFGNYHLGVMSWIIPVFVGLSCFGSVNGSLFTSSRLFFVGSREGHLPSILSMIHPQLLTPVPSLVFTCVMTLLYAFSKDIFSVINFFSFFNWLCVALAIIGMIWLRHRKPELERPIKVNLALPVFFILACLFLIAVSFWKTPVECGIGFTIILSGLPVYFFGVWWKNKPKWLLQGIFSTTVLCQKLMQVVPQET
T4 sequence (P08195 103-630 partner): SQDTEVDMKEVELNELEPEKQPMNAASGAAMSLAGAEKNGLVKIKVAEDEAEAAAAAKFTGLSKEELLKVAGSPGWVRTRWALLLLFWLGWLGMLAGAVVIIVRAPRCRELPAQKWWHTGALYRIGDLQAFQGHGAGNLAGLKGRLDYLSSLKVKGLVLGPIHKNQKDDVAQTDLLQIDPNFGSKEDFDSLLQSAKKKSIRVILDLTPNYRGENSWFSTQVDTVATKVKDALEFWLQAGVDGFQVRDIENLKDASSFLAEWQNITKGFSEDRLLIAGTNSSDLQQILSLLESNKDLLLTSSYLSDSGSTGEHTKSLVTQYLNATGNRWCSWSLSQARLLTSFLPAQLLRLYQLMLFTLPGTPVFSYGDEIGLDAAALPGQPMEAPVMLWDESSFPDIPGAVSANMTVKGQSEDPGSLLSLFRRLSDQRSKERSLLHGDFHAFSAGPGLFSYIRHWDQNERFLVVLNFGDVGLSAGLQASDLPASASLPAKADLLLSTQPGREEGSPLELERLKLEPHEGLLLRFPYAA
Description: KB cells originate from a human oral squamous cell carcinoma and express only LAT1 for uptake of neutral amino acids as shown by reverse-transcriptase (RT)-PCR [37] and RNA interference (RNAi).
as §3, with “nm. (B) Effect of 5 mM BCH inhibitor on the uptake rate of 100 μM L-tryptophan. Error bars indicate standard deviation.” for “nm.”
Ratio imaging was performed on an inverted fluorescence microscope (DM IRE2, Leica; http://www.leica.com) with a Quant EM digital camera (Photometrics; http://www.photomet.com) and 20× oil immersion, 63× water immersion lenses (HC PL APO 20×/0.7 or HCX PL APO, Leica). Dual emission intensity ratios were simultaneously recorded using a DualView with an OI-5-EM filter set (eCFP 480/30; eYFP 535/40; Optical Insights; http://www.optical-insights.com) and Slidebook 4.2 (Intelligent Imaging Innovations; http://www.intelligent-imaging.com/). […] Fluorescence intensities for eCFP and Venus were typically in the range of 6,000–8,000 and 12,000–16,000, respectively. […]

CC(C)C[C@H](N)C(=O)O [leucine]
Tryptophan export from the cytosol promoted by extracellular amino acid (COS-7 cells [1]): able to promote tryptophan export

CC[C@H](C)[C@H](N)C(=O)O [isoleucine]
Tryptophan export from the cytosol promoted by extracellular amino acid (COS-7 cells [1]): able to promote tryptophan export

N[C@@H](Cc1c[nH]c2ccccc12)C(=O)O [l-tryptophan, L-tryptophan]
Kd (FLIPW-CTY): 220 ± 20 µM
Affinity of the cells for combined uptake and metabolism of tryptophan (COS-7 cells [1]; COS-7, perfusion): 2.6 ± 1.1 µM
Reported affinity of human LAT1 for tryptophan uptake (human LAT1): 21 µM
Kd (FLIPW-CTYT): 100 ± 14 µM
Affinity for combined tryptophan uptake and metabolism (KB cells; perfusion conditions): 5.1 ± 1.0 µM
Km (COS-7 cells [2]): 0.88 ± 0.27 µM

CSCC[C@H](N)C(=O)O [methionine]
Tryptophan export from the cytosol promoted by extracellular amino acid (COS-7 cells [1]): able to promote tryptophan export

N[C@@H](Cc1ccccc1)C(=O)O [phenylalanine]
Tryptophan export from the cytosol promoted by extracellular amino acid (COS-7 cells [1]): able to promote tryptophan export

Nc1c(O)cccc1C(=O)CC(N)C(=O)O (centres unmarked) [HK, 3-hydroxy-kynurenine]
Tryptophan export induced by extracellular tryptophan degradation product (COS-7 cells [1]): tryptophan export
FLIPW-CTYT FRET response or interference with tryptophan binding (FLIPW-CTYT): did not result in a FLIPW-CTYT FRET response
Export of intracellular tryptophan upon perfusion (FRET ratio decrease) (KB cells): exported

N[C@@H](Cc1c[nH]c2ccccc12)C(=O)O [L-tryptophan]
Km [3]: 2.6 µM
Kd (FLIPW-TCTY): 20 µM
Km (LAT1): 5.1 µM

Cc1ccc2[nH]cc(C[C@H](N)C(=O)O)c2c1 [l-5-methyl-tryptophan, 5-methyl-L-tryptophan]
Kd (FLIPW-CTY): 60 ± 10 µM
Kd (FLIPW-CTYT): 25 ± 2 µM

CNC(C)(C)C(=O)O [N-(methylamino)isobutyric acid]
Effect on uptake rate of 100 μM L-tryptophan (COS-7 cells [1]): did not decrease uptake rates

N[C@@H](Cc1c[nH]c2ccc(O)cc12)C(=O)O [l-5-hydroxy-tryptophan, 5-hydroxy-L-tryptophan]
Kd (FLIPW-CTY): 6000 ± 800 µM

NC1(C(=O)O)CC2CCC1C2 (centres unmarked) [BCH, 2-aminobicyclo-(2,2,1)-heptane-2-carboxylic acid]
Effect on uptake rate of 100 μM L-tryptophan (COS-7 cells [1]): decreased the uptake of tryptophan
Effect on LAT1-mediated uptake of 100 μM L-tryptophan (KB cells; 5 mM BCH): almost completely inhibited

N[C@@H](Cc1c[nH]cn1)C(=O)O [L-histidine]
Tryptophan export from the cytosol promoted by extracellular amino acid (COS-7 cells [1]): export of tryptophan from the cytosol
Export of intracellular tryptophan upon perfusion (FRET ratio decrease) (KB cells): decreased

Nc1c(O)cccc1C(=O)O [HAA, hydroxy-anthranilic acid]
Tryptophan export induced by extracellular tryptophan degradation product (COS-7 cells [1]): did not result in tryptophan export
FLIPW-CTYT FRET response or interference with tryptophan binding (FLIPW-CTYT): did not result in a FLIPW-CTYT FRET response
Export of intracellular tryptophan upon perfusion (FRET ratio decrease) (KB cells): not

N[C@@H](Cc1ccc(O)cc1)C(=O)O [tyrosine]
Tryptophan export from the cytosol promoted by extracellular amino acid (COS-7 cells [1]): able to promote tryptophan export

Nc1ccccc1C(=O)CC(N)C(=O)O (centres unmarked) [K, kynurenine]
Tryptophan export induced by extracellular tryptophan degradation product (COS-7 cells [1]): tryptophan export
FLIPW-CTYT FRET response or interference with tryptophan binding (FLIPW-CTYT): did not result in a FLIPW-CTYT FRET response
Export of intracellular tryptophan upon perfusion (FRET ratio decrease) (KB cells): exported

N[C@H](Cc1c[nH]c2ccccc12)C(=O)O [d-tryptophan, D-tryptophan]
Kd (FLIPW-CTY): 3100 ± 300 µM
Concentration for decrease of FRET ratio relative to L-tryptophan (FLIPW-CTY; titration of FLIPW-CTY, higher concentrations than L-tryptophan): about 5 fold
Kd (FLIPW-CTYT): 1280 ± 100 µM

CC(C)[C@H](N)C(=O)O [valine]
Tryptophan export from the cytosol promoted by extracellular amino acid (COS-7 cells [1]): able to promote tryptophan export
